According to paper PMC9241669, “Allantodapsone is a Pan-Inhibitor of Staphylococcus aureus Adhesion to Fibrinogen, Loricrin, and Cytokeratin 10” (Microbiology Spectrum, 2022):
Where two headings read alike, the source gives them in different places.

Experiments:
S. aureus SH1000 = assay: Adhesion of S. aureus SH1000 to immobilized fibrinogen (crystal violet); type: cell-based, Staphylococcus aureus; settings: for IC50: Staphylococcus aureus
Method: FIG 2 Allantodapsone inhibits S. aureus adhesion to fibrinogen. (A) S. aureus Newman stationary phase and (B) exponential phase. (C) S. aureus SH1000 stationary phase and (D) exponential phase bacteria. Fibrinogen was used to coat plates at 4°C overnight at 10 μg/mL. Wells were washed with PBS and blocked with 1% BSA. Washed bacteria (OD600 of 1) were mixed with the relevant concentration of allantodapsone or vehicle control for 5 min, and added to the wells, incubating for 2 h at 37°C. Adherent cells were washed, fixed, and stained with crystal violet, and wells further washed. The dye was dissolved in acetic acid and the absorbance measured at 570 nm. Compounds were screened at a concentration of 70 μM and compared to their vehicle control. Statistical analysis was carried out using repeated measures ANOVA followed by multiple comparisons Dunnett’s tests using GraphPad PRISM. **, P ≤ 0.01; ***, P ≤ 0.001; ****, P ≤ 0.0001 (n = 3).
Adhesion assays were carried out according to Hartford et al. ([37]). Briefly, plates were coated with 10 μg/mL fibrinogen (Calbiochem, Darmstadt, Germany) or 20 μg/mL fibronectin (Sigma-Aldrich, Ireland) for 2 h at 37°C or for 16 h at 4°C. Plates were blocked with 1% BSA at 37°C for 1 h and washed 3 times in PBS. Washed bacteria were incubated at 37°C for 2 h. Adherent bacteria were washed three times in PBS and fixed in 5–9% formaldehyde at room temperature for 30 min. Wells were washed three times in PBS and stained using 5% crystal violet for 20 min. Wells were washed three times in PBS, and the crystal violet solubilized using 5% acetic acid. Plates were read at 570 nm on a Wallac Victor2, (Shelton, CT, USA). The minimum adhesion inhibitory concentration (MAIC) was determined as the concentration inhibiting greater than 90% bacterial adhesion.
Compounds were added to the bacterial suspension prior to addition to the wells. In each experiment, vehicle controls were prepared using the same volume of vehicle for the matching test compound.

S. aureus Newman = assay: Adhesion of S. aureus Newman to cytokeratin 10 (CK10); type: cell-based, Staphylococcus aureus; settings: CK10 10 nM
Method: FIG 4 Allantodapsone inhibits S. aureus adhesion to loricrin and cytokeratin 10. Dose-response curve for adhesion of S. aureus Newman to GST-L2v loricrin (A) and CK10 (C). (B) Inhibition of recombinant ClfB N2N3 binding to immobilized GST-L2v loricrin by allantodapsone. (D) Inhibition of S. aureus Newman adhesion to GST-L2v loricrin by allantodapsone derivatives. Purified GST-L2v or CK10 were used to coat plates at 4°C overnight. Wells were washed with PBS and blocked with 1% BSA. Washed bacteria (OD600 of 1) were mixed with allantodapsone or vehicle control before being added to the wells and incubated for 2 h at 37°C. Adherent cells were washed, fixed, and stained with crystal violet, and wells further washed. The dye was dissolved in acetic acid, and the absorbance measured at 570 nm. GST-L2v was used at 20 μM in A and D. CK10 was used at 10 nM. […] Bound ClfB was detected using peroxidase-conjugated anti-His monoclonal antibody in an ELISA. […]
Adhesion assays were carried out according to Hartford et al. ([37]). […] Plates were read at 570 nm on a Wallac Victor2, (Shelton, CT, USA). The minimum adhesion inhibitory concentration (MAIC) was determined as the concentration inhibiting greater than 90% bacterial adhesion.

[1] = system: platelet aggregation induced by S. aureus Newman; assay: Platelet aggregation induced by S. aureus Newman in platelet rich plasma; type: cell-based, human; settings: 100 μM allantodapsone, 5 minutes prior to aggregation
Method: V. Microbiology: Materials and Methods
The MTT toxicity assay (1) (Vybrant MTT Cell Proliferation Assay, Molecular Probes, Or, USA) was used to measure cytotoxicity. Myeloid lineage, U-937 cells (2) were grown in RPMI-1640 (Gibco) culture medium supplemented with 10% foetal calf serum, 1% L-glutamine and 1% Penicillin/Streptomycin (Gibco). U-937 cells were centrifuged and cells diluted with fresh medium containing 1.2 mM MTT solution to a concentration of (5-6 x 10^6 per mL) and incubated at 37 °C for 2 h. Cells were centrifuged and the pellet dissolved in DMSO. The absorbance was read at 490 nm using the Wallac Victor2, (Shelton, Connecticut, USA).
Platelet aggregation was performed in platelet rich plasma according to O’Brien et al.
S. aureus Newman (stationary phase) was washed and diluted to an OD600 of 2.5.
This was mixed with 10 mg/mL of fibrinogen in 1:1 ratio resulting in a final concentration 5 mg/mL fibrinogen. Fibrinogen -bacteria aggregates clump and settle at the bottom of the tube resulting in a clear solution. These were compared to the turbid bacterial suspension in buffer by visual inspection. […]
of S. aureus Newman was used as an agonist to stimulate platelet aggregation. […] Data was analysed by repeated measures ANOVA followed by a multiple comparison Dunnett’s test. […]

## Nc1ccc(S(=O)(=O)c2ccc(NCN3C(=O)NC(=O)C(=O)C3=O)cc2)cc1 [Allantodapsone]
S. aureus SH1000; S. aureus SH1000, stationary and exponential phase, compounds screened at 70 μM (Fig. 2)
  inhibition of adhesion to fibrinogen: inhibited
S. aureus SH1000; SH1000, read-out: IC50, inhibition of adhesion to fibrinogen, S. aureus SH1000 exponential phase
  IC50: 15.6 µM
S. aureus SH1000; SH1000, read-out: IC50, inhibition of adhesion to fibrinogen, S. aureus SH1000 stationary phase
  IC50: 7.6 µM
S. aureus Newman
  inhibition of adhesion to CK10: dose dependent inhibition
[1]
  inhibition of S. aureus Newman induced platelet aggregation: did not inhibit
